Source: the supplement of paper PMC10307832

Assays:
Assay in all cases: relative viability (nuclei count vs DMSO), 5 days (fraction); higher = more cells survive
[1] = compound: C[C@H]([C@@H](C(=O)N)NC(=O)[C@@H]1CSSC[C@@H](C(=O)N[C@H](C(=O)N[C@@H](C(=O)N[C@H](C(=O)N1)CCCCN)CC2=CNC3=CC=CC=C32)CC4=CC=C(C=C4)O)NC(=O)[C@@H](CC5=CC=CC=C5)N)O [CAP-232]
Summary of the method: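 After an overnight hold at 37 °C, lung cancer cell lines in 1536-well plates were pinned with five library-drug doses (not always all listed), each √10 from the next, on vehicle-anchored plates. The cells stayed 5 days without fresh medium, then a one-step fix, permeabilisation and Hoechst stain preceded 4× imaging and MetaXpress nuclear counts. A plate passed only with control CV under 25% and at least one doubling. Viability is the median, over plates, of treated-well nuclei relative to vehicle-well nuclei.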

[2] = compound: C[C@H]([C@@H](C(=O)N)NC(=O)[C@@H]1CSSC[C@@H](C(=O)N[C@H](C(=O)N[C@@H](C(=O)N[C@H](C(=O)N1)CCCCN)CC2=CNC3=CC=CC=C32)CC4=CC=C(C=C4)O)NC(=O)[C@@H](CC5=CC=CC=C5)N)O [CAP-232] + CCNC(=O)c1noc(-c2cc(C(C)C)c(O)cc2O)c1-c1ccc(CN2CCOCC2)cc1 [Luminespib] (partner 0.01 µM)
Summary of the method: (§1)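 Nuclei were stained with Hoechst during a one-step fixation (final 0.05% Triton X-100, 1% formaldehyde, 1 ug/ml Hoechst) carried out 5 days after dosing, then counted on 4× images. The cells, lung cancer lines in 1536-well plates, had been dosed by pin tool the day after seeding with one drug alone or a fixed anchor-drug dose plus five library-drug doses (not always all listed) in √10 steps. Relative viability is the nuclei count in treated wells divided by that in vehicle wells, and each value is the median of duplicate plates.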

[3] = compound: C[C@H]([C@@H](C(=O)N)NC(=O)[C@@H]1CSSC[C@@H](C(=O)N[C@H](C(=O)N[C@@H](C(=O)N[C@H](C(=O)N1)CCCCN)CC2=CNC3=CC=CC=C32)CC4=CC=C(C=C4)O)NC(=O)[C@@H](CC5=CC=CC=C5)N)O [CAP-232] + C[C@@H](Oc1cc(-c2cnn(C3CCNCC3)c2)cnc1N)c1c(Cl)ccc(F)c1Cl [Crizotinib] (partner 1 µM)
Summary of the method: as §1

[4] = compound: C[C@H]([C@@H](C(=O)N)NC(=O)[C@@H]1CSSC[C@@H](C(=O)N[C@H](C(=O)N[C@@H](C(=O)N[C@H](C(=O)N1)CCCCN)CC2=CNC3=CC=CC=C32)CC4=CC=C(C=C4)O)NC(=O)[C@@H](CC5=CC=CC=C5)N)O [CAP-232] + C[C@]1(O)C[C@@H](c2nc(-c3ccc4ccc(-c5ccccc5)nc4c3)c3c(N)nccn32)C1 [Linsitinib] (partner 1 µM)
Summary of the method: as §1

[5] = compound: C[C@H]([C@@H](C(=O)N)NC(=O)[C@@H]1CSSC[C@@H](C(=O)N[C@H](C(=O)N[C@@H](C(=O)N[C@H](C(=O)N1)CCCCN)CC2=CNC3=CC=CC=C32)CC4=CC=C(C=C4)O)NC(=O)[C@@H](CC5=CC=CC=C5)N)O [CAP-232] + O=C(CCCCCCC(=O)Nc1ccccc1)NO [Vorinostat] (partner 1 µM)
Summary of the method: as §1

Cell Line	relative viability ([1]; 0.4 µM)	relative viability ([1]; 1.265 µM)	relative viability ([1]; 4 µM)	relative viability ([1]; 12.65 µM)	relative viability ([2]; first compound 0.4 µM)	relative viability ([2]; first compound 1.265 µM)	relative viability ([2]; first compound 4 µM)	relative viability ([2]; first compound 12.65 µM)	relative viability ([3]; first compound 0.4 µM)	relative viability ([3]; first compound 1.265 µM)	relative viability ([3]; first compound 4 µM)	relative viability ([3]; first compound 12.65 µM)	relative viability ([4]; first compound 0.4 µM)	relative viability ([4]; first compound 1.265 µM)	relative viability ([4]; first compound 4 µM)	relative viability ([4]; first compound 12.65 µM)	relative viability ([5]; first compound 0.4 µM)	relative viability ([5]; first compound 1.265 µM)	relative viability ([5]; first compound 4 µM)	relative viability ([5]; first compound 12.65 µM)
201T	1.07	0.952	0.996	1.02	1.08	1.04	0.967	1.07	1.13	1.02	1.04	1.04	1.05	0.974	0.978	0.948	1.05	0.98	1	0.995
A549	0.999	0.895	1.14	0.597					0.86	0.734	0.871	0.251	0.621	0.59	0.583	0.531				
A-427	1.01	0.953	0.931	0.86	0.697	0.968	0.87	1.03	0.881	0.913	0.908	0.93	1.14	1.09	1.15	1.12	0.937	0.882	0.879	0.893
ABC-1	0.968	0.789	0.957	0.603	0.554	0.587	0.686	0.377	1.01	1.17	1.08	0.903	1.07	0.781	0.726	0.427	1.48		1.13	0.952
BEN	1.03	1.05	0.989	0.922	0.501	0.234	0.184	0.371	0.859	0.98	0.82	0.772	0.952	0.944	0.818	0.896	0.547	0.57	0.565	0.479
CAL-12T	0.917	0.992	0.995	0.97	0.132	0.184	0.242	0.155	0.531	0.703	0.657	0.739	0.812	0.784	0.892	0.966	0.805	0.752	0.832	0.431
COR-L23	1.15	1.05	1.09	0.745	0.475	0.776	0.81	0.506	0.665	0.793	0.72	0.619	0.92	1	0.971	0.676	0.518	0.474	0.488	0.381
COR-L 105	1.05	0.816	0.992	0.573	0.768	0.652	0.737	0.494	0.863	0.808	0.804	0.581	0.963	0.816	1.08	0.61	0.871	0.719	1	0.637
ChaGo-K-1	1.1	0.99	1.05	1.04	0.574	0.638	0.495	0.545	1.22	1.17	1.41	0.833					0.835	0.724	0.709	0.71
EKVX	1.07	0.968	1.04	0.885	0.876	0.719	0.871	0.645	0.899	1.1	1.03	0.651	1.01	1.07	0.972	0.737	1.01	0.74	0.818	0.749
EMC-BAC-2	1.19	0.941	0.995	0.866	1.32	1.19	1.21	1.05	0.794	0.753	0.764	0.709	0.785	0.796	0.821	0.774	0.818	0.395	0.483	0.383
EPLC-272H	0.998	0.909	1.05	0.915	0.256	0.198	0.219	0.157	1.16	0.836	0.791	0.887	1.33	1.02	1.3	1.09		0.615	0.545	0.158
H3255	0.976	0.946	1.01	0.769	0.805	0.825	1.05	1.01	0.956	1.04	0.854	0.692	0.922	0.924	1.16	0.916	0.923		0.7	0.726
HARA	1.12	0.984	1.03	0.902	0.918	0.884	0.973	0.804	1.16	1.05	0.936	0.998	0.907	0.989	1.14	0.836	0.497	0.487	0.598	0.432
HCC-15	1.15	1.01	1.14	0.874	0.254	0.228	0.248	0.312	0.807	0.816	0.924	0.825	0.853	0.894	0.912	0.805	0.825	0.858	0.959	0.61
HCC-44	1.11	0.988	0.963	0.978	1.35	1.01	0.759	1	0.866	0.812	0.863	0.846	0.817	0.666	0.754	0.627	1.08	1.08	1.15	1.13

Cell Line	relative viability ([1]; 0.4 µM)	relative viability ([1]; 1.265 µM)	relative viability ([1]; 4 µM)	relative viability ([1]; 12.65 µM)	relative viability ([2]; first compound 0.4 µM)	relative viability ([2]; first compound 1.265 µM)	relative viability ([2]; first compound 4 µM)	relative viability ([2]; first compound 12.65 µM)	relative viability ([3]; first compound 0.4 µM)	relative viability ([3]; first compound 1.265 µM)	relative viability ([3]; first compound 4 µM)	relative viability ([3]; first compound 12.65 µM)	relative viability ([4]; first compound 0.4 µM)	relative viability ([4]; first compound 1.265 µM)	relative viability ([4]; first compound 4 µM)	relative viability ([4]; first compound 12.65 µM)	relative viability ([5]; first compound 0.4 µM)	relative viability ([5]; first compound 1.265 µM)	relative viability ([5]; first compound 4 µM)	relative viability ([5]; first compound 12.65 µM)
HCC-78	1.16	0.947	1.14	0.992					0.367	0.34	0.251	0.323	0.53	0.559	0.371	0.408	0.47	0.489	0.388	0.441
HCC-366	0.988	0.964	1.04	1.09					0.486	0.543	0.623	0.448	0.745	0.628	0.824	0.537	0.32	0.345	0.418	0.323
HCC-827	1.07	1.05	1.06	0.997	0.629	0.66	0.659	0.749	0.932	1.02	0.784	0.963	0.911	0.893	0.921	0.959	0.888	0.832	0.883	0.891
HOP-62	0.998	0.957	1.1	0.992	0.957	0.917	1.13	0.908	1		1.05	0.729	0.776		0.954	0.946	0.589	0.484	0.676	0.543
IA-LM	1.02	0.911	1.07	0.508					0.852	0.928	0.892	0.242	0.828	0.611	0.711	0.394	0.821	1.01	0.939	0.822
LC-2-ad	1.17	0.95	1.07	1.03	1.03	1.07	0.965	0.561	0.436	0.464	0.451	0.391	0.84	0.847	0.766	0.807	0.734	0.753	0.723	0.698
NCI-H522	0.967	0.982	1.01	0.916	1.08	1.11	1.15	1.3									0.971	0.9	0.93	0.867
NCI-H1395	1.05	0.846	0.995	0.925	0.661	0.638	0.665	0.614					1.3	0.986	1.03	0.831	1.11		0.79	0.573
NCI-H1563	0.987	0.927	0.95	0.657	0.461	0.52	0.455	0.462	0.965	0.911	0.835	0.777	1.36	1.12	1.21	0.829				
NCI-H1650	0.986	0.849	0.932	0.27	0.195	0.197	0.214	0.126	0.98	0.963	0.966	0.627					0.645	0.514	0.622	0.183
NCI-H1703	0.854	0.917	0.961	0.764					0.788	0.844	0.74	0.695	0.489	0.642	0.933	0.873				
NCI-H1792	1.44	0.775	0.878	0.777	0.375	0.445	0.371	0.279	1.37	1.02	0.834	0.722	0.493	0.56	0.654	0.285				
NCI-H1793	1.01	0.911	0.869	0.917	0.199	0.195	0.451	0.165					1.09	1.06	0.652	0.801	0.947	0.703	0.728	0.653
NCI-H2170	0.986	0.971	1.16	1.02	0.777	0.866	0.674	0.826	1.24	1.22	1.23	0.901					0.823	0.835	0.886	0.794
NCI-H2342	0.952	0.997	1.08	0.977	0.786	0.765	0.719	0.699									0.688	0.647	0.623	0.742
SW 900	0.962	0.881	0.953	0.845	0.171	0.185	0.187	0.169									0.727	0.453	0.432	0.429
